Structures can show the parent of a compound that is named as a salt. Where two headings read alike, the source gives them in different places.
Tests used:
Test in all cases: AK assay 384-well format, Prestwick library screening
[1] = system: E. faecium; type: cell-based, Enterococcus faecium; details: 50 μM final drug concentration; for fold induction at 50 µM: Enterococcus faecium, 3 h
[2] = system: S. aureus strain USA300-0114; type: cell-based, Staphylococcus aureus; details: 50 μM final drug concentration; for fold induction at 50 µM: Staphylococcus aureus, USA300, 3 h
[3] = system: K. pneumoniae; type: cell-based, Klebsiella pneumoniae; details: 50 μM final drug concentration; for fold induction at 50 µM: Klebsiella pneumoniae, 3 h
[4] = system: A. baumannii strain 98-37-09; type: cell-based, Acinetobacter baumannii; details: 50 μM final drug concentration; for fold induction at 50 µM: Acinetobacter baumannii, 983709, 3 h
[5] = system: P. aeruginosa; type: cell-based, Pseudomonas aeruginosa; details: 50 μM final drug concentration; for fold induction at 50 µM: Pseudomonas aeruginosa, 3 h
[6] = system: E. cloacae; type: cell-based, Enterobacter cloacae; details: 50 μM final drug concentration; for fold induction at 50 µM: Enterobacter cloacae, 3 h
[7] = system: E. coli; type: cell-based, Escherichia coli; details: 50 μM final drug concentration; for fold induction at 50 µM: Escherichia coli, 3 h
[8] = cutoff for positive-scoring molecules 3-fold increase, read-out: AK-based Prestwick Library Screening Results, E. faecium (fold increase in extracellular AK activity)
[9] = cutoff for positive-scoring molecules 3-fold increase, read-out: AK-based Prestwick Library Screening Results, S. aureus (fold increase in extracellular AK activity)
[10] = cutoff for positive-scoring molecules 3-fold increase, read-out: AK-based Prestwick Library Screening Results, K. pneumoniae (fold increase in extracellular AK activity)
[11] = cutoff for positive-scoring molecules 3-fold increase, read-out: AK-based Prestwick Library Screening Results, A. baumannii (fold increase in extracellular AK activity)
[12] = cutoff for positive-scoring molecules 3-fold increase, read-out: AK-based Prestwick Library Screening Results, P. aeruginosa (fold increase in extracellular AK activity)
[13] = cutoff for positive-scoring molecules 3-fold increase, read-out: AK-based Prestwick Library Screening Results, E. cloacae (fold increase in extracellular AK activity)
[14] = cutoff for positive-scoring molecules 3-fold increase, read-out: AK-based Prestwick Library Screening Results, E. coli (fold increase in extracellular AK activity)
[15] = 384-well format, cutoff for positive-scoring molecules 3-fold increase, read-out: AK-based Prestwick Library Screening Results, E. faecium (increase in extracellular AK activity)
[16] = 384-well format, cutoff for positive-scoring molecules 3-fold increase, read-out: AK-based Prestwick Library Screening Results, S. aureus (increase in extracellular AK activity)
[17] = 384-well format, cutoff for positive-scoring molecules 3-fold increase, read-out: AK-based Prestwick Library Screening Results, K. pneumoniae (increase in extracellular AK activity)
[18] = 384-well format, cutoff for positive-scoring molecules 3-fold increase, read-out: AK-based Prestwick Library Screening Results, A. baumannii (increase in extracellular AK activity)
[19] = 384-well format, cutoff for positive-scoring molecules 3-fold increase, read-out: AK-based Prestwick Library Screening Results, P. aeruginosa (increase in extracellular AK activity)
[20] = 384-well format, cutoff for positive-scoring molecules 3-fold increase, read-out: AK-based Prestwick Library Screening Results, E. cloacae (increase in extracellular AK activity)
[21] = 384-well format, cutoff for positive-scoring molecules 3-fold increase, read-out: AK-based Prestwick Library Screening Results, E. coli (increase in extracellular AK activity)
[22] = planktonic E. faecium, 384-well, cutoff for positive-scoring molecules 3-fold increase, read-out: AK-based Prestwick Library Screening Results: E. faecium (increase in extracellular AK activity)
[23] = planktonic S. aureus, 384-well, cutoff for positive-scoring molecules 3-fold increase, read-out: AK-based Prestwick Library Screening Results: S. aureus (increase in extracellular AK activity)
[24] = planktonic K. pneumoniae, 384-well, cutoff for positive-scoring molecules 3-fold increase, read-out: AK-based Prestwick Library Screening Results: K. pneumoniae (increase in extracellular AK activity)
[25] = planktonic A. baumannii, 384-well, cutoff for positive-scoring molecules 3-fold increase, read-out: AK-based Prestwick Library Screening Results: A. baumannii (increase in extracellular AK activity)
[26] = planktonic P. aeruginosa, 384-well, cutoff for positive-scoring molecules 3-fold increase, read-out: AK-based Prestwick Library Screening Results: P. aeruginosa (increase in extracellular AK activity)
[27] = planktonic E. cloacae, 384-well, cutoff for positive-scoring molecules 3-fold increase, read-out: AK-based Prestwick Library Screening Results: E. cloacae (increase in extracellular AK activity)
[28] = planktonic E. coli, 384-well, cutoff for positive-scoring molecules 3-fold increase, read-out: AK-based Prestwick Library Screening Results: E. coli (increase in extracellular AK activity)
[29] = planktonic, cutoff for positive 3-fold increase

Structure (SMILES): C/C=C(/C(=C/C)c1ccc(O)cc1)c1ccc(O)cc1 [Dienestrol]
- fold induction at 50 µM [1, 8]: 1.3
- fold induction at 50 µM [2, 9]: 0.4
- fold induction at 50 µM [3, 10]: 0.9
- fold induction at 50 µM [4, 11]: 3.2
- fold induction at 50 µM [5, 12]: 1.1
- fold induction at 50 µM [6, 13]: 21.9
- fold induction at 50 µM [7, 14]: 1.1

Structure (SMILES): CC(NC(C)(C)C)C(=O)c1cccc(Cl)c1 (stereo not shown) [Bupropion hydrochloride]
- fold induction at 50 µM [1, 15]: 1
- fold induction at 50 µM [2, 16]: 0.5
- fold induction at 50 µM [3, 17]: 0.5
- fold induction at 50 µM [4, 18]: 0.5
- fold induction at 50 µM [5, 19]: 0.5
- fold induction at 50 µM [6, 20]: 0.5
- fold induction at 50 µM [7, 21]: 0.5

Structure (SMILES): CCn1cc(C(=O)O)c(=O)c2cc(F)c(N3CCNCC3)cc21 [Norfloxacin]
- fold induction at 50 µM [1, 22]: 1.5
- fold induction at 50 µM [2, 23]: 1.8
- fold induction at 50 µM [3, 24]: 0.8
- fold induction at 50 µM [4, 25]: 3.1
- fold induction at 50 µM [5, 26]: 31.3
- fold induction at 50 µM [6, 27]: 3.1
- fold induction at 50 µM [7, 28]: 33.1

Structure (SMILES): COc1ccc(C(=O)c2ccccc2)c(O)c1 [Oxybenzone]
- fold induction at 50 µM ([1]; planktonic, cutoff for positive-scoring molecules 3-fold increase, read-out: AK-based Prestwick Library Screening Results, E. faecium (fold increase in extracellular AK activity)): 0.7
- fold induction at 50 µM ([2]; planktonic, cutoff for positive-scoring molecules 3-fold increase, read-out: AK-based Prestwick Library Screening Results, S. aureus (fold increase in extracellular AK activity)): 0.4
- fold induction at 50 µM ([3]; planktonic, cutoff for positive-scoring molecules 3-fold increase, read-out: AK-based Prestwick Library Screening Results, K. pneumoniae (fold increase in extracellular AK activity)): 0.4
- fold induction at 50 µM ([4]; planktonic, cutoff for positive-scoring molecules 3-fold increase, read-out: AK-based Prestwick Library Screening Results, A. baumannii (fold increase in extracellular AK activity)): 0.4
- fold induction at 50 µM ([5]; planktonic, cutoff for positive-scoring molecules 3-fold increase, read-out: AK-based Prestwick Library Screening Results, P. aeruginosa (fold increase in extracellular AK activity)): 0.5
- fold induction at 50 µM ([6]; planktonic, cutoff for positive-scoring molecules 3-fold increase, read-out: AK-based Prestwick Library Screening Results, E. cloacae (fold increase in extracellular AK activity)): 0.6
- fold induction at 50 µM ([7]; planktonic, cutoff for positive-scoring molecules 3-fold increase, read-out: AK-based Prestwick Library Screening Results, E. coli (fold increase in extracellular AK activity)): 0.5

Structure (SMILES): CN1CCCCC1CCN1c2ccccc2Sc2ccc([S+](C)[O-])cc21 (stereo not shown) [Mesoridazine besylate]
- fold induction at 50 µM ([1]; planktonic, cutoff for positive 3-fold increase, read-out: AK-based Prestwick Library Screening Results, E. faecium (fold increase in extracellular AK activity)): 1.1
- fold induction at 50 µM ([2]; planktonic, cutoff for positive 3-fold increase, read-out: AK-based Prestwick Library Screening Results, S. aureus (fold increase in extracellular AK activity)): 1.3
- fold induction at 50 µM ([3]; planktonic, cutoff for positive 3-fold increase, read-out: AK-based Prestwick Library Screening Results, K. pneumoniae (fold increase in extracellular AK activity)): 1
- fold induction at 50 µM ([4]; planktonic, cutoff for positive 3-fold increase, read-out: AK-based Prestwick Library Screening Results, A. baumannii (fold increase in extracellular AK activity)): 1
- fold induction at 50 µM ([5]; planktonic, cutoff for positive 3-fold increase, read-out: AK-based Prestwick Library Screening Results, P. aeruginosa (fold increase in extracellular AK activity)): 1.2
- fold induction at 50 µM ([6]; planktonic, cutoff for positive 3-fold increase, read-out: AK-based Prestwick Library Screening Results, E. cloacae (fold increase in extracellular AK activity)): 1.3
- fold induction at 50 µM ([7]; planktonic, cutoff for positive 3-fold increase, read-out: AK-based Prestwick Library Screening Results, E. coli (fold increase in extracellular AK activity)): 1.1

Structure (SMILES): Cc1ccc(C(=O)c2ccc(CC(=O)O)n2C)cc1 [Tolmetin sodium salt dihydrate]
- fold induction at 50 µM [1, 8]: 0.8
- fold induction at 50 µM [2, 9]: 0.9
- fold induction at 50 µM [3, 10]: 0.6
- fold induction at 50 µM [4, 11]: 0.8
- fold induction at 50 µM [5, 12]: 1
- fold induction at 50 µM [6, 13]: 2
- fold induction at 50 µM [7, 14]: 0.9

Structure (SMILES): CN(Cc1cnc2nc(N)nc(N)c2n1)c1ccc(C(=O)N[C@@H](CCC(=O)O)C(=O)O)cc1 (racemic) [Amethopterin (R,S)]
- AK-based Prestwick Library Screening Results, E. faecium (fold increase in extracellular AK activity) [1, 29]: 0.9
- AK-based Prestwick Library Screening Results, S. aureus (fold increase in extracellular AK activity) [2, 29]: 1.0
- AK-based Prestwick Library Screening Results, K. pneumoniae (fold increase in extracellular AK activity) [3, 29]: 0.8
- AK-based Prestwick Library Screening Results, A. baumannii (fold increase in extracellular AK activity) [4, 29]: 0.9
- AK-based Prestwick Library Screening Results, P. aeruginosa (fold increase in extracellular AK activity) [5, 29]: 1.1
- AK-based Prestwick Library Screening Results, E. cloacae (fold increase in extracellular AK activity) [6, 29]: 1.3
- AK-based Prestwick Library Screening Results, E. coli (fold increase in extracellular AK activity) [7, 29]: 1.1

Structure (SMILES): CO[C@H]1C[C@H](O[C@H]2[C@H](C)[C@@H](O[C@@H]3O[C@H](C)C[C@H](N(C)C)[C@H]3O)[C@@H](C)C[C@@]3(CO3)C(=O)[C@H](C)[C@@H](O)[C@@H](C)[C@@H](C)OC(=O)[C@@H]2C)O[C@@H](C)[C@@H]1O [Oleandomycin phosphate]
- fold induction at 50 µM [1, 22]: 1
- fold induction at 50 µM [2, 23]: 3.6
- fold induction at 50 µM [3, 24]: 1
- fold induction at 50 µM [4, 25]: 1.1
- fold induction at 50 µM [5, 26]: 1
- fold induction at 50 µM [6, 27]: 1.6
- fold induction at 50 µM [7, 28]: 1.1

Structure (SMILES): CC(=O)c1ccc2c(c1)N(CCCN(C)C)c1ccccc1S2.O=C(O)/C=C\C(=O)O [Acetopromazine maleate salt]
- AK-based Prestwick Library Screening Results, E. faecium (increase in extracellular AK activity) ([1]; planktonic E. faecium, cutoff for positive-scoring molecules 3-fold increase): 1.0
- AK-based Prestwick Library Screening Results, S. aureus (increase in extracellular AK activity) ([2]; planktonic S. aureus, cutoff for positive-scoring molecules 3-fold increase): 0.8
- AK-based Prestwick Library Screening Results, K. pneumoniae (increase in extracellular AK activity) ([3]; planktonic K. pneumoniae, cutoff for positive-scoring molecules 3-fold increase): 0.6
- AK-based Prestwick Library Screening Results, A. baumannii (increase in extracellular AK activity) ([4]; planktonic A. baumannii, cutoff for positive-scoring molecules 3-fold increase): 0.8
- AK-based Prestwick Library Screening Results, P. aeruginosa (increase in extracellular AK activity) ([5]; planktonic P. aeruginosa, cutoff for positive-scoring molecules 3-fold increase): 0.7
- AK-based Prestwick Library Screening Results, E. cloacae (increase in extracellular AK activity) ([6]; planktonic E. cloacae, cutoff for positive-scoring molecules 3-fold increase): 0.8
- AK-based Prestwick Library Screening Results, E. coli (increase in extracellular AK activity) ([7]; planktonic E. coli, cutoff for positive-scoring molecules 3-fold increase): 0.8

Structure (SMILES): COc1ccc(C(=O)NCc2cccnc2)cc1C(=O)NCc1cccnc1 [Picotamide monohydrate]
- fold induction at 50 µM [1, 15]: 0.9
- fold induction at 50 µM [2, 16]: 0.7
- fold induction at 50 µM [3, 17]: 0.8
- fold induction at 50 µM [4, 18]: 0.9
- fold induction at 50 µM [5, 19]: 0.8
- fold induction at 50 µM [6, 20]: 1.2
- fold induction at 50 µM [7, 21]: 0.9

Reference: patent publication US10004701B2, “Methods and compositions for treating infection” (UNIVERSITY OF ROCHESTER, priority 2012, dated 2018)
